These results are taken from patent US7674801B2 (AstraZeneca AB, priority 2006, dated 2010).

This assay deals with S. aureus (SAU) GyrB ATPase (Staphylococcus aureus, UniProt P0A0K8). The experiment in a line: S. aureus GyrB ATPase inhibition, ammonium molybdate/malachite green phosphate detection assay. Format: biochemical. The note with it: for inhibition at 12.5 µM: read-out: S. aureus (SAU) GyrB ATPase % Inhibition, compound concentration 12.5 μM; for inhibition at 5 µM: compound concentration 5 μM (values marked *); for IC50: 10 compound concentrations, 500 μM ATP. On the procedure:
Compounds were tested for inhibition of GyrB ATPase activity using an ammonium molybdate/malachite green-based phosphate detection assay (Lanzetta, P. A., L. J. Alvarez, P. S. Reinach, and O. A. Candia, 1979, 100: 95-97). Assays were performed in multiwell plates in 100 μl reactions containing: 50 mM Hepes buffer pH 7.5, 75 mM ammonium acetate, 8.0 mM magnesium chloride, 1.0 mM ethylenediaminetetraacetic acid, 5% glycerol, 2 mM 1,4-Dithio-DL-threitol, 400 nM bovine serum albumin, 5 μg/ml sheared salmon sperm DNA, 1.25 nM E. coli GyrA, 1.25 nM S. aureus GyrB, 500 μM ATP, and compound in dimethylsulfoxide. Reactions were quenched with 150 μl of ammonium molybdate/malachite green detection reagent containing 1.2 mM malachite green hydrochloride, 8.5 mM ammonium molybdate tetrahydrate, and 1 M hydrochloric acid. Plates were read in an absorbance plate reader at 650 nm and percent inhibition values were calculated using dimethylsulfoxide (2%)-containing reactions as 0% inhibition and novobiocin-containing (2 μM) reactions as 100% inhibition controls. Compound potency was based on IC50 measurements determined from reactions performed in the presence of 10 different compound concentrations.

Chain of S. aureus (SAU) GyrB ATPase (P0A0K8 whole entry): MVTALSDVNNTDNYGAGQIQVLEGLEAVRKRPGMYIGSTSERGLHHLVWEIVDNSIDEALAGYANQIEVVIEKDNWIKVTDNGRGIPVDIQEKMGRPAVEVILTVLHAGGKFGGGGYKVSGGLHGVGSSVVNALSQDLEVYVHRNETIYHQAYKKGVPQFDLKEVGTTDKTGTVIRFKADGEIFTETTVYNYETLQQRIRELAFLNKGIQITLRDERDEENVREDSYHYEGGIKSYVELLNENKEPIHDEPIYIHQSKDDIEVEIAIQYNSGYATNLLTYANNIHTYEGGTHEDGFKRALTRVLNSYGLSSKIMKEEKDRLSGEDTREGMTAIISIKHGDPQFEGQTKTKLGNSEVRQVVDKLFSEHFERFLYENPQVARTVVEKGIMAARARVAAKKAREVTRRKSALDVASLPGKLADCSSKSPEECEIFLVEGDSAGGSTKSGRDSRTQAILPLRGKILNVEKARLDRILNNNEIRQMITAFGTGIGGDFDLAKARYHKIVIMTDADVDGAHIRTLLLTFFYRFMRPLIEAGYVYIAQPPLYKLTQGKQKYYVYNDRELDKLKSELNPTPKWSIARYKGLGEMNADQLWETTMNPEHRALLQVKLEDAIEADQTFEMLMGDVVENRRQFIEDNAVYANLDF
Chain of S. aureus (SAU) GyrB ATPase (P0AES4 whole entry, further chain): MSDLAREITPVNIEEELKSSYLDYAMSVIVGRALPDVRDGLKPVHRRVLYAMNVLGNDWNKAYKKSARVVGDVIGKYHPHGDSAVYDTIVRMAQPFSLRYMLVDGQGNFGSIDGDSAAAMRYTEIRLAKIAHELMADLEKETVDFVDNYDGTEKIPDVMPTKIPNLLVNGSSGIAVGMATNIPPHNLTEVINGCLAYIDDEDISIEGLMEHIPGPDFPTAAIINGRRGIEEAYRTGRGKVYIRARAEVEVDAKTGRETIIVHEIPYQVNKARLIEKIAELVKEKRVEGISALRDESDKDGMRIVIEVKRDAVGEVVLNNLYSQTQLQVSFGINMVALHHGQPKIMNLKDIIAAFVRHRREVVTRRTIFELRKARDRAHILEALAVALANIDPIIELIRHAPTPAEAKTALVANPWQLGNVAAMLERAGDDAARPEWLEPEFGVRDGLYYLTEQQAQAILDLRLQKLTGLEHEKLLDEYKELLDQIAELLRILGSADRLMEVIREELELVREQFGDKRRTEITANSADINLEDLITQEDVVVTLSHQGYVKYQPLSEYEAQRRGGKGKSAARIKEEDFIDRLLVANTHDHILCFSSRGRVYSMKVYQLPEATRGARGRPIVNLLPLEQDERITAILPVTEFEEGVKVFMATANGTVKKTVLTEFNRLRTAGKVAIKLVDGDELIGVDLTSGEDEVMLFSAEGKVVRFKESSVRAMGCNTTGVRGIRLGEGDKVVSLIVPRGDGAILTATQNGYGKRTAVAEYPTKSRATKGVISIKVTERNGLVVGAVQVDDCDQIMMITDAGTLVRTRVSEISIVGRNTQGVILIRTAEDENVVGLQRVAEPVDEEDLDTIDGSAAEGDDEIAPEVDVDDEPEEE

On to `CCNC(=O)Nc1nc(-c2ccc(C(=O)O)cc2)cs1` [Example 33, 4-(2-{[(Ethylamino)carbonyl]amino}-1,3-thiazol-4-yl)benzoic acid], for which the inhibition at 12.5 µM was found to be 38.2%.
`CCNC(=O)Nc1ccc(-c2ncc(C(=O)NOC)s2)cn1` [Example 34, 2-(6-{[(Ethylamino)carbonyl]amino}pyridin-3-yl)-N-methoxy-1,3-thiazole-5-carboxamide]: the inhibition at 5 µM was 42.5%.
On the same count and under the same terms, to `CCNC(=O)Nc1ccc(-c2nc(C(=O)NC3CC3)c(C(=O)NOC)s2)cn1` [Example 35, N^4-Cyclopropyl-2-(6-{[(ethylamino)carbonyl]amino}pyridin-3-yl)-N^5-methoxy-1,3-thiazole-4,5-dicarboxamide] belongs 96.7%.
Usually IC50 stands for the concentration at which inhibition is half-maximal. Low readings indicate inhibition by little substance, high ones a need for much substance. Take `CCCCNC(=O)c1nc(-c2ccc(NC(=O)NCC)nc2)sc1C(=O)NOC` [Example 36, N^4-Butyl-2-(6-{[(ethylamino)carbonyl]amino}pyridin-3-yl)-N^5-methoxy-1,3-thiazole-4,5-dicarboxamide]: inhibition was half-maximal at 16.8 nM (IC50) and the inhibition at 12.5 µM came out at 4.84%.
In the case of `CCNC(=O)Nc1ccc(-c2ncc(C(N)=O)s2)cn1` [Example 37, 2-(6-{[(Ethylamino)carbonyl]amino}pyridin-3-yl)-1,3-thiazole-5-carboxamide], the inhibition at 12.5 µM was 98.9%.
Same read-out and setting: to `CCNC(=O)Nc1ccc(-c2nc(C(=O)NC3CC3)c(C(N)=O)s2)cn1` [Example 38, N^4-Cyclopropyl-2-(6-{[(ethylamino)carbonyl]amino}pyridin-3-yl)-1,3-thiazole-4,5-dicarboxamide] belongs 91.8%.
On to `CCCCNC(=O)c1nc(-c2ccc(NC(=O)NCC)nc2)sc1C(N)=O` [Example 39, N^4-Butyl-2-(6-{[(ethylamino)carbonyl]amino}pyridin-3-yl)-1,3-thiazole-4,5-dicarboxamide], for which half-maximal inhibition (IC50) was put at 14 nM and the inhibition at 12.5 µM was found to be 99%.
Take `CCNC(=O)Nc1ccc(-c2nc3cccc(C(N)=O)c3s2)cn1` [Example 40, 2-(6-{[(Ethylamino)carbonyl]amino}pyridin-3-yl)-1,3-benzothiazole-7-carboxamide]: the inhibition at 12.5 µM came to 83.7%.
The same measure, in the same setting: to `CCNC(=O)Nc1nc(-c2ccc(C(=O)OC)cc2)cs1` [Example 41, Methyl 4-(2-{[(ethylamino)carbonyl]amino}-1,3-thiazol-4-yl)benzoate] belongs 26.9%; to `CCNC(=O)Nc1ccc(-c2ccc3c(c2)c(=O)c(C(=O)O)cn3CCOC)cn1` [Example 46, 6-(6-(3-Ethylureido)pyridin-3-yl)-1-(2-methoxyethyl)-4-oxo-1,4-dihydroquinoline-3-carboxylic acid], 83.4%.
Still for that read-out and setting: to `CCCCn1cc(C(=O)O)c(=O)c2cc(-c3ccc(NC(=O)NCC)nc3)ccc21` [Example 47, 1-Butyl-6-(6-(3-ethylureido)pyridin-3-yl)-4-oxo-1,4-dihydroquinoline-3-carboxylic acid] belongs 91.7%.
Regarding `CCNC(=O)Nc1ccc(-c2ccc3c(c2)c(=O)c(C(=O)O)cn3CCN2CCOCC2)cn1` [Example 48, 6-(6-(3-ethylureido)pyridin-3-yl)-1-(2-morpholinoethyl)-4-oxo-1,4-dihydroquinoline-3-carboxylic acid], the inhibition at 12.5 µM was determined as 101%.
Still for that read-out and setting: to `CCNC(=O)Nc1ccc(-c2ccc3c(c2)c(=O)c(C(=O)O)cn3CC(F)F)cn1` [Example 49, 1-(2,2-difluoroethyl)-6-(6-(3-ethylureido)pyridin-3-yl)-4-oxo-1,4-dihydroquinoline-3-carboxylic acid] belongs 37.8%.
Take `CCNC(=O)Nc1ccc(-c2c[nH]c(=O)c(C(=O)O)c2)cn1` [Example 51, 5-(6-(3-ELthylureido)pyridin-3-yl)-2-oxo-1,2-dihydropyridine-3-carboxylic acid]: the inhibition at 12.5 µM was determined as 62.1%.
In the case of `CCNC(=O)Nc1ccc(-c2nc(C(=O)N(C)C)c(C(=O)NCC)s2)cn1` [Example 54, N^5-Ethyl-2-(6-{[(ethylamino)carbonyl]amino}pyridin-3-yl)-N^4,N^4-dimethyl-1,3-thiazole-4,5-dicarboxamide], the inhibition at 12.5 µM is 89.8%.
The same measure, in the same setting: to `CCCNC(=O)c1sc(-c2ccc(NC(=O)NCC)nc2)nc1C(=O)N(C)C` [Example 55, 2-[6-(3-Ethyl-ureido)-pyridin-3-yl]-thiazole-4,5-dicarboxylic acid 4-dimethylamide 5-propylamide] belongs 86.4%; to `CCNC(=O)Nc1ccc(-c2nc(C(=O)N(C)C)c(C(=O)NC(C)C)s2)cn1` [Example 56, 2-[6-(3-Ethyl-ureido)-pyridin-3-yl]-thiazole-4,5-dicarboxylic acid 4-dimethylamide 5-isopropylamide], 84.1%; to `CCNC(=O)Nc1ccc(-c2nc(C(=O)N(C)C)c(C(=O)N(C)C)s2)cn1` [Example 57, 2-[6-(3-Ethyl-ureido)-pyridin-3-yl]-thiazole-4,5-dicarboxylic acid bis-dimethylamide], 80.1%.
Turning to `CCNC(=O)Nc1ccc(-c2nc(C(=O)N(C)C)c(C(=O)NC3CCCC3)s2)cn1` [Example 58, 2-[6-(3-Ethyl-ureido)-pyridin-3-yl]-thiazole-4,5-dicarboxylic acid 5-yclopentylamide 4-dimethylamide], the inhibition at 12.5 µM is 89.3%.
Same read-out and setting: to `CCNC(=O)Nc1ccc(-c2nc(C(=O)NCC)c(C(=O)N(C)C)s2)cn1` [Example 61, 2-[6-(3-Ethyl-ureido)-pyridin-3-yl]-thiazole-4,5-dicarboxylic acid 5-dimethylamide 4-ethylamide] belongs 92.8%.
For `CCCNC(=O)c1nc(-c2ccc(NC(=O)NCC)nc2)sc1C(=O)N(C)C` [Example 64, 2-[6-(3-ethyl-ureido)-pyridin-3-yl]-thiazole-4,5-dicarboxylic acid 5-dimethylamide 4-propylamide], the inhibition at 12.5 µM was 92.6%.
With `CCNC(=O)Nc1ccc(-c2nc(C(=O)NC(C)C)c(C(=O)N(C)C)s2)cn1` [Example 67], the inhibition at 12.5 µM was 92.5%.
Same read-out and setting: to `CCNC(=O)Nc1cc(-c2cncc(F)c2)c(-c2cncc(C(=O)O)c2)cn1` [Example 69, 6′-{[(Ethylamino)carbonyl]amino}-5″-fluoro-3,3′:4′,3″-terpyridine-5-carboxylic acid] belongs 88.5%; to `CCNC(=O)Nc1cc(-c2cncc(F)c2)c(-c2cncc(C(=O)NC)c2)cn1` [Example 70, 6′-{[(ethylamino)carbonyl]amino}-5″-fluoro-N-methyl-3,3′:4′,3″-terpyridine-5-carboxamide], 88.2%.
On the same count and under the same terms, to `CCNC(=O)Nc1ccc(-c2nc(-c3nccn3CCOC)c(C(=O)OC)s2)cn1` [Example 71, Methyl 2-(6-{[(ethylamino)carbonyl]amino}pyridin-3-yl)-4-[1-(2-methoxyethyl)-1H-imidazol-2-yl]-1,3-thiazole-5-carboxylate] belongs 93%; to `CCNC(=O)Nc1ccc(-c2nc(-c3ncnn3C)c(C(=O)OC)s2)cn1` [Example 72, Methyl 2-(6-{[(ethylamino)carbonyl]amino}pyridin-3-yl)-4-(1-methyl-1H-1,2,4-triazol-5-yl)-1,3-thiazole-5-carboxylate], 80.3%; to `CCNC(=O)Nc1ccc(-c2nc(C(=O)N[C@@H](C)COC)c(C(=O)OCC)s2)cn1` [Example 74, Ethyl 2-(6-{[(ethylamino)carbonyl]amino}pyridin-3-yl)-4-({[(1S)-2-methoxy-1-methylethyl]amino}carbonyl)-1,3-thiazole-5-carboxylate], 0.95%.
For the compound `CCNC(=O)Nc1ccc(-c2nc(-c3nccn3C)c(C(=O)OC)s2)cn1` [Example 75, Methyl 2-(6-{[(ethylamino)carbonyl]amino}pyridin-3-yl)-4-(1-methyl-1H-imidazol-2-yl)-1,3-thiazole-5-carboxylate], the inhibition at 12.5 µM was determined as 93.5%.
On the same count and under the same terms, to `CCNC(=O)Nc1ccc(-c2nc(C(=O)NC(C)(C)C)c(C(=O)OCC)s2)cn1` [Example 76, Ethyl 4-[(tert-butylamino)carbonyl]-2-(6-{[(ethylamino)carbonyl]amino}pyridin-3-yl)-1,3-thiazole-5-carboxylate] belongs 88.2%.
On the same count and under the same terms, to `CCNC(=O)Nc1cc(-c2ccccc2)c(-c2cncc(C(=O)OCC)c2)cn1` [Example 77, Ethyl 6′-{[(ethylamino)carbonyl]amino}-4′-phenyl-3,3′-bipyridine-5-carboxylate] belongs 101%; to `CCNC(=O)Nc1cc(-c2nc(C(F)(F)F)cs2)c(-c2cncc(C(=O)OCC)c2)cn1` [Example 83, Ethyl 6′-{[(ethylamino)carbonyl]amino}-4′-[4-(trifluoromethyl)-1,3-thiazol-2-yl]-3,3′-bipyridine-5-carboxylate], 86.9%; to `CCNC(=O)Nc1cc(-c2cccnc2)c(-c2cncc(C(=O)OCC)c2)cn1` [Example 85, Ethyl 6′-{[(ethylamino)carbonyl]amino}-3,3′:4′,3″-terpyridine-5-carboxylate], 94.9%.
Turning to `CCNC(=O)Nc1cc(-c2ccc(F)nc2)c(-c2cncc(C(=O)OCC)c2)cn1` [Example 86, Ethyl 6′-{[(ethylamino)carbonyl]amino}-6″-fluoro-3,3′:4′,3″-terpyridine-5-carboxylate], the inhibition at 12.5 µM amounted to 99.9%.
